In patent US8263606B2 (Xenon Pharmaceuticals Inc., priority 2008, dated 2012):

Legend:
[1] = target: CYP3A4 (Homo sapiens, UniProt P08684); assay: Cytochrome P450 (CYP450) Inhibition Assay, CYP3A4 (Vivid fluorescence, BOMCC substrate); settings: human, P450 Baculosomes (recombinant CYP3A4), probe BOMCC (Vivid substrate)
[2] = tested on: sodium channel; assay: Guanidine influx assay (14C-guanidine radiotracer flux, in vitro); assay type: cell-based, human or rat; settings: guanidine influx assay using a known cell line that expresses a sodium channel
How it was run: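 Radiotracer read-out: intracellular 14C-guanidine counted after washing with guanidine-supplemented low-sodium buffer. Cells expressing human or rat channels get test agent plus aconitine activator and tracer, incubated at ambient temperature. Dilution series centred on 1 μM; IC50 by sigmoidal dose-response fit.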

CYP3A4, sequence (P08684 whole entry): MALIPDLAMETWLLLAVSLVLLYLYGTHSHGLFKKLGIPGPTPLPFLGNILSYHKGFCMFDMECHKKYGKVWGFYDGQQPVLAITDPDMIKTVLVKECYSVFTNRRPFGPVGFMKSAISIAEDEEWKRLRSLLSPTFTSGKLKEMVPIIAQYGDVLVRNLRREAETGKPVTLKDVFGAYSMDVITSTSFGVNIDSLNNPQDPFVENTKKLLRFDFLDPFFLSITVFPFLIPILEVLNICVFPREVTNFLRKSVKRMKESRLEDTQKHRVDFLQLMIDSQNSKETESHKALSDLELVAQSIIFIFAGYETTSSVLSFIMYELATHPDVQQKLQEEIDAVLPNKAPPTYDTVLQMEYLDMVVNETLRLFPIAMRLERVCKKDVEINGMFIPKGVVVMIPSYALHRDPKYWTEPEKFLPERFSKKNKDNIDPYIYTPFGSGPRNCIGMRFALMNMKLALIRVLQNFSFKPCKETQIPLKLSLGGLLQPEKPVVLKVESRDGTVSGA

Row | SMILES | melting point [°C] | inhibition at 10 µM [1] [%] | IC50 ([2]; activity level class) [nM] | IC50 [2] [nM]
1 | COc1ccc(CN2C(=O)C3(COc4cc5onc(C)c5cc43)c3ccccc32)cc1 (stereo not drawn) [Example 2.6, 1′-(4-methoxybenzyl)-3-methylspiro[furo[3,2-f][1,2]benzisoxazole-5,3′-indol]-2′(1′H)-one] | 138 to 139 | > 50 | 1 to 100 | –
2 | O=C1N(Cc2ccc3ncnn3c2)c2ccccc2C12COc1cc3c(cc12)OCCO3 (stereo not drawn) [Example 39, 1′-([1,2,4]triazolo[1,5-a]pyridin-6-ylmethyl)-2,3-dihydrospiro[furo[2,3-g][1,4]benzodioxine-8,3′-indol]-2′(1′H)-one] | 207 to 209 | > 50 | – | 1 to 100
3 | CN1C(=O)C2(C(=O)N(Cc3ccccn3)c3ccccc32)c2cc3c(cc21)OCCO3 (stereo not drawn) [Example 5.19, 6-methyl-1′-(pyridin-2-ylmethyl)-2,3-dihydrospiro[1,4-dioxino[2,3-f]indole-8,3′-indole]-2′,7(1H,6H)-dione] | 87 to 89 | < 50 | 1000 to 10000 | –
4 | Cc1nc2cc3c(cc2s1)C1(CO3)C(=O)Nc2ccccc21 (stereo not drawn) [Example 1, 2-methylspiro[furo[2,3-f][1,3]benzothiazole-7,3′-indol]-2′(1′H)-one] | > 250 | < 50 | 1000 to 10000 | –
5 | COc1cc2c(cc1F)C1(CO2)C(=O)N(Cc2ccccn2)c2ccccc21 (stereo not drawn) [Example 4.65, 5-fluoro-6-methoxy-1′-(pyridin-2-ylmethyl)spiro[1-benzofuran-3,3′-indol]-2′(1′H)-one] | 142 to 144 | < 50 | 100 to 1000 | –
6 | Cn1cc(CN2C(=O)C3(COc4cc5c(cc43)OCCO5)c3ccccc32)ccc1=O (stereo not drawn) [Example 36, 1′-[(1-methyl-6-oxo-1,6-dihydropyridin-3-yl)methyl]-2,3-dihydrospiro[furo[2,3-g][1,4]benzodioxine-8,3′-indol]-2′(1′H)-one] | 205 to 207 | < 50 | – | 100 to 1000
7 | O=C1N(Cc2cc(C(F)(F)F)ccn2)c2ccccc2C12COc1cc3c(cc12)OCCO3 (stereo not drawn) [Example 23, 1′-{[4-(trifluoromethyl)pyridin-2-yl]methyl}-2,3-dihydrospiro[furo[2,3-g][1,4]benzodioxine-8,3′-indol]-2′(1′H)-one] | 154 to 155 | < 50 | – | 1 to 100
8 | O=C1Nc2cc3c(cc2C12COc1cc4c(cc12)CCO4)OCCO3 (stereo not drawn) [Example 3.28, 2′,3′,5,6-tetrahydrospiro[benzo[1,2-b:5,4-b′]difuran-3,8′-[1,4]dioxino[2,3-f]indol]-7′(6′H)-one] | > 250 | > 50 | 1000 to 10000 | –
9 | CC(C)c1nc(CN2C(=O)C3(COc4cc5c(cc43)OCCO5)c3ccccc32)cs1 (stereo not drawn) [Example 4.121, 1′-{[2-(1-methylethyl)-1,3-thiazol-4-yl]methyl}-2,3-dihydrospiro[furo[2,3-g][1,4]benzodioxine-8,3′-indol]-2′(1′H)-one] | 60 to 63 | > 50 | 1 to 100 | –
10 | CN1C(=O)COc2cc3c(cc21)C1(CO3)C(=O)Nc2ccccc21 (stereo not drawn) [Example 3.22, 1-methyl-1H-spiro[furo[3,2-g][1,4]benzoxazine-8,3′-indole]-2,2′(1′H,3H)-dione] | > 250 | < 50 | 1000 to 10000 | –
11 | Cc1cc2c(cc1C)C1(CO2)C(=O)N(C(c2ccccc2)c2ccccc2)c2ccccc21 (stereo not drawn) [Example 2.3, 1′-(diphenylmethyl)-5,6-dimethylspiro[1-benzofuran-3,3′-indol]-2′(1′H)-one] | 193 to 195 | < 50 | 1000 to 10000 | –

Results, then the compound that gave them:

Row | melting point [°C] | inhibition at 10 µM [1] [%] | IC50 ([2]; activity level class) [nM] | IC50 [2] [nM] | SMILES
12 | 203 to 205 | < 50 | 1 to 100 | – | O=C1N(Cc2ncccn2)c2ccccc2C12COc1cc3c(cc12)CCO3 (stereo not drawn) [Example 9.5, 1′-(pyrimidin-2-ylmethyl)-5,6-dihydrospiro[benzo[1,2-b:5,4-b′]difuran-3,3′-indol]-2′(1′H)-one]
13 | 58 to 59 | < 50 | 1 to 100 | – | CCOC(=O)CN1C(=O)C2(COc3cc4c(cc32)OCCO4)c2ccccc21 (stereo not drawn) [Example 9.44, ethyl (2′-oxo-2,3-dihydrospiro[furo[2,3-g][1,4]benzodioxine-8,3′-indol]-1′(2′H)-yl)acetate]
14 | 166 to 168 | > 50 | – | 100 to 1000 | O=C1N(Cc2ccc(Cl)s2)c2cccc(-c3ccoc3)c2C12COc1cc3c(cc12)OCO3 (stereo not drawn) [Example 16.13, 1′-[(5-chloro-2-thienyl)methyl]-4′-(3-furyl)spiro[furo[2,3-f][1,3]benzodioxole-7,3′-indol]-2′(1′1-1)-one]
15 | 214 to 216 | > 50 | – | 100 to 1000 | Cl.N#CCCNCCCN1C(=O)C2(COc3cc4c(cc32)CCO4)c2ccccc21 (stereo not drawn) [Example 15.4, 3-{[3-(2′-oxo-5,6-dihydrospiro[benzo[1,2-b:5,4-b′]difuran-3,3′-indol]-1′(2′H)-yl)propyl]amino}propanenitrile hydrochloride]
16 | 87 to 89 | < 50 | 100 to 1000 | – | O=C1N(Cc2ccc(OCc3ccccc3)cc2)c2ccccc2C12COc1cc3c(cc12)OCCO3 (stereo not drawn) [Example 9.37, 1′-[4-(benzyloxy)benzyl]-2,3-dihydrospiro[furo[2,3-g][1,4]benzodioxine-8,3′-indol]-2′(1′H)-one]
17 | 187 to 189 | > 50 | 1000 to 10000 | – | COc1cc2c(cc1C#N)C1(CO2)C(=O)N(Cc2ccccn2)c2ccccc21 (stereo not drawn) [Example 9.47, 6-methoxy-2′-oxo-1′-(pyridin-2-ylmethyl)-1′,2′-dihydrospiro[1-benzofuran-3,3′-indole]-5-carbonitrile]
18 | 187 to 190 | < 50 | – | 100 to 1000 | CN1C(=O)C2(COc3cc4c(cc32)CCO4)c2ccccc21 (stereo not drawn) [Example 11.43, 1′-methyl-5,6-dihydrospiro[benzo[1,2-b:5,4-b′]difuran-3,3′-indol]-2′(1′H)-one]
19 | 182 to 188 | > 50 | – | 100 to 1000 | O=C1N(Cc2cccc(-c3noc(C(F)(F)F)n3)c2)c2ccccc2C12COc1cc3c(cc12)CCO3 (stereo not drawn) [Example 11.28, 1′-{3-[5-(trifluoromethyl)-1,2,4-oxadiazol-3-yl]benzyl}-5,6-dihydrospiro[benzo[1,2-b:5,4-b′]difuran-3,3′-indol]-2′(1′H)-one]
20 | 154 to 156 | > 50 | – | 1 to 100 | CC(C)(C)OC(=O)N1C(=O)C2(COc3cc4c(cc32)OCO4)c2c(Br)cccc21 (stereo not drawn) [Example 18.1, tert-butyl 4′-bromo-2′-oxospiro[furo[2,3-f][1,3]benzodioxole-7,3′-indole]-1′(2′H)-carboxylate]
21 | 172 to 174 | > 50 | – | 1 to 100 | NC(=O)c1cc(CN2C(=O)C3(COc4cc5c(cc43)OCO5)c3ccccc32)oc1C(F)(F)F (stereo not drawn) [Example 12.58, 5-[(2′-oxospiro[furo[2,3-f][1,3]benzodioxole-7,3′-indol]-1′(2′H)-yl)methyl]-2-(trifluoromethyl)furan-3-carboxamide]
22 | 137 to 139 | > 50 | – | 1 to 100 | O=C1N(Cc2noc(C(F)F)n2)c2ccccc2C12COc1cc3c(cc12)OCO3 (stereo not drawn) [Example 11.22, 1-{[5-(difluoromethyl)-1,2,4-oxadiazol-3-yl]methyl}spiro[furo[2,3-f][1,3]benzodioxole-7,3′-indol]-2′(1′H)-one]
23 | 46 to 54 | > 50 | – | 1000 to 10000 | C[C@@H](CN1C(=O)C2(COc3cc4c(cc32)CCO4)c2ccccc21)OCc1ccccn1 (stereo partly drawn) [Example 14.3, 1′-[(2S)-2-(pyridin-2-ylmethoxy)propyl]-5,6-dihydrospiro[benzo[1,2-b:5,4-b′]difuran-3,3′-indol]-2′(1′H)-one]
24 | 130 to 135 | > 50 | – | 100 to 1000 | NC(=O)c1cccc(CN2C(=O)C3(COc4cc5c(cc43)OCCO5)c3ccccc32)c1 (stereo not drawn) [Example 12.61, 3-[(2′-oxo-2,3-dihydrospiro[furo[2,3-g][1,4]benzodioxine-8,3′-indol]-1′(2′H)-yl)methyl]benzamide]
25 | 179 to 182 | > 50 | – | 1 to 100 | O=C1N(Cc2noc(C(F)F)n2)c2cccc(Cl)c2C12COc1cc3c(cc12)OCO3 (stereo not drawn) [Example 11.21]
26 | 190 to 192 | > 50 | – | 100 to 1000 | Nc1cccc2c1C1(COc3cc4c(cc31)CCO4)C(=O)N2C[C@H]1CCCO1 (stereo partly drawn) [Example 11.39, 4′-amino-1′-[(2R)-tetrahydrofuran-2-ylmethyl]-5,6-dihydrospiro[benzo[1,2-b:5,4-b′]difuran-3,3′-indol]-2′(1′H)-one]
27 | 206 to 208 | > 50 | – | 100 to 1000 | CC(C)NC(=O)N1CCCC(CCN2C(=O)C3(COc4cc5c(cc43)OCO5)c3ccccc32)C1 (stereo not drawn) [Example 11.73, N-isopropyl-3-[2-(2′-oxospiro[furo[2,3-f][1,3]benzodioxole-7,3′-indol]-1′(2′H)-yl)ethyl]piperidine-1-carboxamide]
28 | 273 to 275 | < 50 | – | 1000 to 10000 | O=C1N(Cc2ncccc2C(F)(F)F)c2ccccc2C12COc1c(Cl)cc3c(c12)OCCO3 (stereo not drawn) [Example 11.108, 6-chloro-1′-{[3-(trifluoromethyl)pyridin-2-yl]methyl}-2,3-dihydrospiro[furo[3,2-f][1,4]benzodioxine-9,3′-indol]-2′(1′H)-one]
